{
  "source": "patent US20220296637A1",
  "about": "“SODIUM THIOSULFATE GEL FOR PREVENTING OR REDUCING HEARING LOSS” (STICHTING HET NEDERLANDS KANKER INSTITUUT-ANTONI VAN …, priority 2019, published 2022)",
  "key": {"[1]": {"test_system": "cisplatin-induced hearing loss (CIHL)", "conditions": "cited from earlier work; for patients in whom CIHL was seen: 61 patients treated with STS (intravenous), 64 with cisplatin alone, p=0.00022; for overall survival: children with disseminated disease, additional intravenous STS vs cisplatin alone, p=0.009"}, "[2]": {"conditions": "reported incidences vary widely amongst studies; cited from earlier work"}, "[3]": {"test_system": "cisplatin-induced hearing loss (CIHL)", "assay": "Phase 1 trial of transtympanic STS gel: audiometry (pure tone averages) for efficacy against cisplatin-induced hearing loss", "type": "in vivo, human", "conditions": "for Δ PTA 0.5-1-2 kHz (posttreatment − baseline) / Δ PTA 1-2-4 kHz (posttreatment − baseline) / Δ PTA 8-10-12.5 kHz (posttreatment − baseline): STS-treated ears; for difference in ΔPTA3 in favour of the untreated ear: last non-responder", "method": "Arm A was a single-blind, placebo controlled, proof-of-concept study. A different application method was investigated in arm B, which was a non-blinded, non-placebo controlled, proof of concept arm. The ear to be treated with the transtympanic STS gel was assigned by randomisation in both arms. The study was performed at the Netherlands Cancer Institute in Amsterdam, the Netherlands. The protocol was approved by the institutional medical research ethics committee. The study is registered with the European Clinical Trials Database (EudraCT) (EudraCT: 2012-004653-80). […] Exclusion criteria were: known symptomatic brain or leptomeningeal metastases and relevant otological history (e.g. conductive hearing loss, vertigo). All patients gave written informed consent prior to start of study procedures. The ear to be treated with the transtympanic STS gel was assigned by randomisation in both arm A and arm B. Arm A concerned a single-blind study protocol in which the contralateral ear was treated with a placebo gel. Arm B was non-blinded and the contralateral ear was left untreated. The enrolment of patients was done by a treating physician. Randomisation was done via a randomisation program at the institutional trial centre. […] In arm B only the STS gel was prepared. Syringes with study medication were warmed up to body temperature (37° C.) for 30 minutes in an incubator ([…], Switzerland) to prevent hypo- or hypercaloric symptoms during or after injections. The syringe was connected to the (Braun, […]) needle via a 10 cm infusion line (BD Becton Dickenson connecta). […] To approach the eardrum in a perpendicular orientation. In arm A, the gels were administered through a […] grommet, which was placed for venting air to prevent barotrauma and/or pain while injecting. During this procedure we noticed there was backflow of the gel via the infusion needle backward into the external ear canal. Therefore, a different protocol for the transtympanic injection was chosen in arm B for the next 6 patients: the grommet was still placed in the anterior eardrum for ventilation of the middle ear, however, the STS gel was injected via the needle directly through the posterior part of the eardrum and indeed backflow into the external ear was not seen anymore. Topical anesthesia was applied using a few small (3×3 mm) gauzes with xylocaine 10% (lidocaine 100 mg/ml, AstraZeneca, United Kingdom) applied on the eardrum before placement of the grommet and the injections. During the injections, the patient was lying in a hospital bed with the upper body positioned 30 degrees upwards. After administration of the gel the patients head was turned 45 degrees contralateral. […] The specific positioning of the patient was in our view needed to for improved and/or prolonged exposure of the STS gel to the round window of the middle ear. […] If concomitant chemotherapy or radiotherapy was to be administered, this was done as per local protocol. […] Standard audiometry including air conduction (AC) and bone conduction (BC) thresholds was performed in a sound proof booth using the Decos Audiology Workstation. […] Six evaluable patients per study arm were considered sufficient to reach proof of concept based on the intra-patient comparison and the expected audiometric difference between the STS-treated and untreated/placebo treated ears. […] To study whether there was a significant difference in CIHL over time ([…]) between the STS ears and the untreated ears, the […] with paired samples was used."}, "[4]": {"test_system": "cisplatin-induced hearing loss (CIHL)", "conditions": "cited from earlier work"}, "[5]": {"test_system": "cisplatin-induced hearing loss", "conditions": "transtympanic STS gel (0.5 M, 0.1 ml, 24 hours prior to cisplatin); 13 patients; 3 to 10 kHz; not significant; cited from earlier work"}, "[6]": {"conditions": "guinea pigs; cited from earlier work"}, "[7]": {"conditions": "in vivo; cited from earlier work"}},
  "data": [
    {"smiles": "N.N.[Cl][Pt][Cl]", "note": "[Cisplatin, cis-diaminedichloroplatinum(II)]", "values": [
      {"measurement": "patients in whom CIHL was seen", "setting": "[1]", "value": 56, "unit": "%"},
      {"measurement": "overall survival", "setting": "[1]", "value": 84, "unit": "%"},
      {"measurement": "occurrence of cisplatin-induced hearing loss in cisplatin-treated patients", "setting": "[2]", "value": "75-80%"}
    ]},
    {"smiles": "O=S([O-])([O-])=S.[Na+].[Na+]", "note": "[STS, sodium thiosulfate]", "values": [
      {"measurement": "Δ PTA 0.5-1-2 kHz (posttreatment − baseline)", "setting": "[3]; 4 patients with ototoxicity who responded to STS-gel", "value": "−0.4", "unit": "dB HL"},
      {"measurement": "Δ PTA 1-2-4 kHz (posttreatment − baseline)", "setting": "[3]; 4 responders", "value": "−0.4", "unit": "dB HL"},
      {"measurement": "Δ PTA 8-10-12.5 kHz (posttreatment − baseline)", "setting": "[3]; 4 responders", "value": 6.8, "unit": "dB SPL"},
      {"measurement": "occurrence of SNHL (ΔPTA3 ≥10 dB), STS-treated versus untreated ears", "setting": "[3]; 12 STS-treated ears vs 12 untreated ears, McNemar p=0.125", "value": "no statistically significant difference"},
      {"measurement": "Δ PTA 1-2-4 kHz (posttreatment − baseline)", "setting": "[3]; all 12 patients", "value": 2.5, "unit": "dB HL"},
      {"measurement": "Δ PTA 8-10-12.5 kHz (posttreatment − baseline)", "setting": "[3]; all 12 patients", "value": 8.8, "unit": "dB SPL"},
      {"measurement": "ΔPTA3 (8-10-12.5 kHz), overall", "setting": "[3]; all 12 patients, STS-treated ears (untreated ears 12.7 dB)", "value": 8.8, "unit": "dB"},
      {"measurement": "Δ PTA 0.5-1-2 kHz (posttreatment − baseline)", "setting": "[3]; all 12 patients, directly after last cisplatin cycle minus baseline", "value": 2.1, "unit": "dB HL"},
      {"measurement": "ΔPTA3", "setting": "[3]; four non-responders, STS-treated ears (untreated ears 15.2 dB)", "value": 14.3, "unit": "dB"},
      {"measurement": "mean ΔPTA3", "setting": "[3]; four responders, STS-treated ears (untreated ears 25.2 dB)", "value": 6.8, "unit": "dB"},
      {"measurement": "difference in ΔPTA3 between STS-treated ears and untreated ears", "setting": "[3]; four responders, in favour of STS-treated ear, range 11.7-33.3 dB", "value": 18.4, "unit": "dB"},
      {"measurement": "difference in ΔPTA3 in favour of the untreated ear", "setting": "[3]; at follow-up audiometry", "value": 2.3, "unit": "dB SPL"},
      {"measurement": "difference in ΔPTA3 in favour of the untreated ear", "setting": "[3]; directly after treatment", "value": 10.0, "unit": "dB SPL"},
      {"measurement": "difference in ΔPTA3 between ears", "setting": "[3]; three of the four non-responders", "value": "< 10", "unit": "dB SPL"},
      {"measurement": "patients in whom CIHL was seen", "setting": "[1]", "value": 29, "unit": "%"},
      {"measurement": "overall survival", "setting": "[1]", "value": 45, "unit": "%"},
      {"measurement": "adverse events likely attributed to intravenous STS administration", "setting": "[4]; children", "value": "tumour progression and grade 3 infection, neutropenia, electrolyte disorders and anaemia"},
      {"measurement": "relative risk of CIHL", "setting": "[4]; intravenous STS, 95% confidence interval 0.33-0.81", "value": 52, "unit": "%"},
      {"measurement": "reduction of the incidence of CIHL versus cisplatin alone", "setting": "[4]; intravenous STS, 109 children, p=0.002", "value": 48, "unit": "%"},
      {"measurement": "averaged hearing loss less in STS-treated ears than in untreated ears", "setting": "[5]", "value": 1.3, "unit": "dB"},
      {"measurement": "perilymph STS concentrations, transtympanic injections compared with intravenous infusion", "setting": "[6]", "value": "higher"},
      {"measurement": "oral bio-availability", "setting": "[7]", "value": "poor"}
    ]}
  ]
}
